According to US20040236125A1, “Novel structures and compositions comprising sterols and/or stanols and specific classes of anti-inflammatory agents and use thereof in treating or preventing cardiovascular disease, its underlying conditions including hyperlipidemia and other disorders having inflammation as part of their …” (FORBES MEDI-TECH INC., priority 2002, published 2004):
Where two headings read alike, the source gives them in different places.

How the values were obtained:
[1] = test system: cholesterol absorption in the intestine; settings: 20 mg/kg single-dose oral gavage in Intralipid 10% emulsion; blood 10 hours after gavage; FIG. 3
Procedure: Adult male Sprague Dawley rats (˜350 g) were maintained under a 12 h light (0700-1900)/dark cycle and supplied with a laboratory standard diet and water ad libitum prior to starting the experiment.
Both groups received a single-dose oral gavage at 0700. Blood collection was performed by cardiac puncture 10 hours after oral gavage. Animals were fasted after gavage. Access to water was permitted ad libitum during the experiment. Blood obtained by cardiac puncture was collected in EDTA-coated tubes and centrifuged. Plasma samples were analyzed for [3H] cholesterol by radioactivity.
Adult male Sprague Dawley rats were given one of the derivatives of the present invention in an oral formulation containing:
20 mg/kg sterol/stanol analogue
1 mg unlabeled cholesterol
25 μCi [3H] Cholesterol in an emulsion with Intralipid 10%.
Animals were fasted 12-16 hours before and 10 hours after the oral gavage was performed. Blood samples were collected by cardiac puncture 10 hours following oral gavage. Plasma samples obtained by centrifugation were analyzed for [3H] Cholesterol and results expressed as a percentage of inhibition of cholesterol absorption in the intestine.
In addition sodium hydroxide was added to adjust the pH so that the final product pH is 8.0; pH range is 6.0 to 8.9. […] Each animal received 20 mg/kg body weight test substance dissolved in water or other appropriate solvent. […]

COX-2 = COX-2 (Ovis aries, UniProt P79208); settings: 4.5 μM, n=3
Procedure: (§1) In summary, FDC-2-4 was treated with a 1:1 ratio of porcine pancreatic lipase and colipase (PL/C). Inhibition of cyclooxygenase was determined using a colorimetric (ovine) COX inhibitor screening assay. The conversion of arachidonic acid to prostaglandin H2 was monitored by a colorimetric reaction. […] Reaction was initiated by adding 100-μM arachidonic acid and 100-μM tetramethyl-p-phenylenediamine (TMPD—the colourimetric substrate). The optical density of the colored product was determined at 620 nm. Acetylsalicylate was used as a positive control in all experiments.
(§2) The solution was vortexed for 2 min. and sonicated for 5 min. before adding 2.5 mg porcine pancreatic lipase and 2.5 mg porcine colipase. The reaction was incubated at room temperature for 2 hours.
(§3) Inhibition was determined using a colorimetric (ovine) COX inhibitor screening assay (Cayman Chemicals). The conversion of arachidonic acid to prostaglandin H2 was monitored by a colorimetric reaction. COX was exposed to the inhibitors for 5 minutes. Reaction was initiated by adding 100-μM arachidonic acid and 100-μM tetramethyl-p-phenylenediamine (TMPD—the colourimetric substrate). The optical density of the colored product was determined at 620 nm 5 minutes after initiation. […] PL/C-treated FDC-2-4 was compared with non-PL/C-treated FDC-2-4 and control (no FDC-2-4 added) in determining COX inhibition. Acetylsalicylate (ASA), was used as a positive control in all experiments. Statistical Analysis on all treatment groups were done using ANOVA and Tukey Posthoc tests.

COX-1 = COX-1 (Ovis aries, UniProt P05979); settings: 0.45 μM, n=3
Procedure: as §1, §2, §3

[2] = PL/C-treated (pancreatic lipase/colipase)

Sequence of COX-1 (P05979 25-600): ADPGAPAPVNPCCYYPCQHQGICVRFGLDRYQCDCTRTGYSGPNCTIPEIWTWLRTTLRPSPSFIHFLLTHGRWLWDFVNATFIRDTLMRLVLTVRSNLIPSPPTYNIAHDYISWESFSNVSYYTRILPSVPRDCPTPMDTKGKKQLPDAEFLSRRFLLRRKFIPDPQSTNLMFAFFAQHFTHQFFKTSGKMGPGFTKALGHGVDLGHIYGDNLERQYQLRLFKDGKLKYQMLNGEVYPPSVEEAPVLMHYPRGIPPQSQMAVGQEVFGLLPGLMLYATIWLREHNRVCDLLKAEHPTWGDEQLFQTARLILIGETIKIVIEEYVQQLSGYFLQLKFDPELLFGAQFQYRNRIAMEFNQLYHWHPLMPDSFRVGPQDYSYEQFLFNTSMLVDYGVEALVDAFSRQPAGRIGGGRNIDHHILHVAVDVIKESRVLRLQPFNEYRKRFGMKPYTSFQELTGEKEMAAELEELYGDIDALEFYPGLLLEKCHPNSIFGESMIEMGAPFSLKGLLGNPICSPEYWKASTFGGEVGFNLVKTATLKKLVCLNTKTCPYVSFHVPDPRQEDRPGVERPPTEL
Sequence of COX-2 (P79208 17-603): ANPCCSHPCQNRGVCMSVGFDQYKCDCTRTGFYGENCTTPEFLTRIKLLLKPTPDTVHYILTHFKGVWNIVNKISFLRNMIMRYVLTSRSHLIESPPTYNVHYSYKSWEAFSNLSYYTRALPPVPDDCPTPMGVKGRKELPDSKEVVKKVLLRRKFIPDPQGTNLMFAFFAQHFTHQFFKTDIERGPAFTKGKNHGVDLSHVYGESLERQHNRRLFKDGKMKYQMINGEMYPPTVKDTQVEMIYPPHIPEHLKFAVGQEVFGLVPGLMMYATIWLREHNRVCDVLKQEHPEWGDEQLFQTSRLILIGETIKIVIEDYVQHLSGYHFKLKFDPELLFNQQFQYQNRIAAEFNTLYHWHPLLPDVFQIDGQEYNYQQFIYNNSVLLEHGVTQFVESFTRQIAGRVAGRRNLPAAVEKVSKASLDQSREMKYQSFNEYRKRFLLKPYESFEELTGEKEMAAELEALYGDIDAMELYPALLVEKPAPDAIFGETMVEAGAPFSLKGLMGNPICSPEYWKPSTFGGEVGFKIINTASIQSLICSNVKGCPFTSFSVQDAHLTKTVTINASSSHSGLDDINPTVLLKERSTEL

Substance: acetoxyphytostanyl salicylate [FDC-2-4]
- inhibition of cholesterol absorption (plasma [3H] cholesterol) compared with controls and VP4 [1]: significantly outperforms both the controls and VP4
- inhibition of COX-2 (COX-2; [2]): 88%
- inhibition of COX-2 (COX-2; non-PL/C-treated): 64%
- inhibition of COX-1 activity (COX-1; [2]): 69%
- inhibition of COX-1 activity (COX-1; non-PL/C-treated): 20%
